Reference: the supplement of paper PMC10307832

How the values were obtained:
Experiment in all cases: relative viability (nuclei count vs DMSO), 5 days (fraction); higher = more cells survive
[1] = compound: O=C(O)C(Cc1ccccc1[N+](=O)[O-])=NNc1nc(-c2ccc(Cl)c(Cl)c2)cs1 (mixture of isomers) [4EGI-1] + COc1cc2c(Oc3ccc(NC(=O)C4(C(=O)Nc5ccc(F)cc5)CC4)cc3F)ccnc2cc1OCCCN1CCOCC1 [Foretinib] (partner 0.25 µM)
Outline: (§1)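 Medians of duplicate plates are given as relative viability. That measure is the nuclei count in treated wells divided by the count in vehicle wells. Counts were taken on 4× images of lung cancer cell lines in 1536-well plates, 5 days after pin-tool dosing the day after seeding with one drug alone or a fixed anchor-drug dose plus five library-drug doses (not always all listed) in √10 steps.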

[2] = compound: O=C(O)C(Cc1ccccc1[N+](=O)[O-])=NNc1nc(-c2ccc(Cl)c(Cl)c2)cs1 (mixture of isomers) [4EGI-1] + Nc1nc2[nH]cc(CCc3ccc(C(=O)N[C@@H](CCC(=O)O)C(=O)O)cc3)c2c(=O)[nH]1 [Pemetrexed] (partner 0.2 µM)
Outline: as §1

[3] = compound: CN1CCN(CC1)C2=CC(=C(C=C2)NC3=NC=C4C(=N3)N(C5=CC=CC=C5C(=O)N4C)C)OC [XMD8-85] + Nc1nc2[nH]cc(CCc3ccc(C(=O)N[C@@H](CCC(=O)O)C(=O)O)cc3)c2c(=O)[nH]1 [Pemetrexed] (partner 0.2 µM)
Outline: as §1

[4] = compound: O=C(O)C(Cc1ccccc1[N+](=O)[O-])=NNc1nc(-c2ccc(Cl)c(Cl)c2)cs1 (mixture of isomers) [4EGI-1] + CC(=O)Nc1cccc(-n2c(=O)n(C3CC3)c(=O)c3c(Nc4ccc(I)cc4F)n(C)c(=O)c(C)c32)c1 [Trametinib] (partner 0.02 µM)
Outline: as §1

Cell Line	relative viability ([1]; first compound 0.5 µM)	relative viability ([1]; first compound 1.581 µM)	relative viability ([1]; first compound 5 µM)	relative viability ([1]; first compound 15.81 µM)	relative viability ([1]; first compound 50 µM)	relative viability ([2]; first compound 0.5 µM)	relative viability ([2]; first compound 1.581 µM)	relative viability ([2]; first compound 5 µM)	relative viability ([2]; first compound 15.81 µM)	relative viability ([2]; first compound 50 µM)	relative viability ([3]; first compound 0.08 µM)	relative viability ([3]; first compound 0.253 µM)	relative viability ([3]; first compound 0.8 µM)	relative viability ([3]; first compound 2.53 µM)	relative viability ([3]; first compound 8 µM)	relative viability ([4]; first compound 0.5 µM)	relative viability ([4]; first compound 1.581 µM)	relative viability ([4]; first compound 5 µM)	relative viability ([4]; first compound 15.81 µM)	relative viability ([4]; first compound 50 µM)
NCI-H1437	1.25	1.12	1.24	1.04	0.521	0.335	0.312	0.313	0.271	0.191	0.29	0.33	0.363	0.317	0.272	0.608	0.537	0.549	0.337	0.207
NCI-H1650	1.37	–	1.04	0.749	0.405	0.369	–	0.412	0.356	0.313	0.376	0.384	0.384	0.306	0.294	0.658	–	0.643	0.275	0.182
NCI-H1651	0.893	0.608	0.818	0.729	0.784	0.599	0.576	0.636	0.52	0.412	0.506	0.617	0.602	0.748	0.445	0.914	0.775	0.863	0.796	0.831
NCI-H1666	1.01	0.924	1.04	0.671	0.417	0.898	0.889	0.891	0.711	0.641	0.862	0.811	0.83	0.82	0.673	0.914	0.822	0.811	0.774	0.66
NCI-H1734	1.02	0.803	0.971	0.827	0.472	0.403	0.433	0.464	0.441	0.362	–	0.405	0.419	0.354	0.366	0.73	0.521	0.684	0.761	0.483
NCI-H1755	0.953	0.854	0.872	0.815	0.704	0.424	0.428	0.417	0.561	0.351	0.405	0.441	0.444	0.427	0.444	0.773	0.802	0.711	0.72	0.556
NCI-H1793	0.645	0.948	0.686	0.443	0.33	1.09	0.905	1.1	0.659	0.304	–	0.824	0.839	1.18	0.645	0.49	0.431	0.414	0.407	0.273
